biological target: T1, PDK1 (Homo sapiens, UniProt O15530); experiment: Test for the inhibition of PDK1 (flashplate, 33P-ATP); format: biochemical; settings: His6-PDK1 3.4 nM, 4 μM ATP, 30° C., 60 min
T1 construct: His6 (N)
T1 sequence (O15530 51-556 limits assumed): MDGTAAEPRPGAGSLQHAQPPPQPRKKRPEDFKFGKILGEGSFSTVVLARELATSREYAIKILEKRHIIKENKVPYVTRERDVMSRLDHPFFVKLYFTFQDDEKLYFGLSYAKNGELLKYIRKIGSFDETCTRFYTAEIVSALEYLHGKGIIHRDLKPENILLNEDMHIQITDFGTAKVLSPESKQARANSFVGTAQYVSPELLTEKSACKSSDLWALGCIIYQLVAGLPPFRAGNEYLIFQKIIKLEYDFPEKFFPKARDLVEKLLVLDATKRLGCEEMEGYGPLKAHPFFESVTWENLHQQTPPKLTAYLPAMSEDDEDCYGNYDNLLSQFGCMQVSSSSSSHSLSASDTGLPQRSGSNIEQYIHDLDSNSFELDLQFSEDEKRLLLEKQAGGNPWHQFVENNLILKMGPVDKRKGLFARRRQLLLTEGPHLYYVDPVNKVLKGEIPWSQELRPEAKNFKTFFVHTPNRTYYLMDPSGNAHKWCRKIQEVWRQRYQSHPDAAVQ
Protocol: The experimental batches are carried out in a flashplate system with 384 wells/microtitration plate.
In each case, the PDK1 sample His6-PDK1(1-50)(3.4 nM), the PDK1 substrate biotin-bA-bA-[…] (400 nM), 4 μM ATP (with 0.2 μCi of ^33 P-ATP/well) and the test substance in 50 μl of conventional experimental solution per well are incubated at 30° C. for 60 min. The test substances are employed in corresponding concentrations (if desired in a dilution series). The control is carried out without test substance. The reaction is stopped using standard methods and washed. The activity of the kinase is measured via the incorporated radioactivity in top count. In order to determine the non-specific kinase reaction (blank value), the experimental batches are carried out in the presence of 100 nM staurosporin.
The radioactivity (decompositions per minute) of the blank value (no use of test substance in the presence of staurosporin) is subtracted from all other radioactivity values. The controls (kinase activity without test substance) are set equal to 100 percent and all other radioactivity values (after subtracting the blank value) are expressed set in relation thereto (for example in % of the control).
[formula] IC50 values (50% inhibition) are determined with the aid of statistics programmes, such as, for example, RS1.

| SMILES | IC50 |
| --- | --- |
| CNc1nc(-c2c[nH]c3ncc(-c4cnn(CCO)c4)cc23)cc(C(C)(O)c2ccccc2)n1 (single isomer, unassigned) [A90, 1-(6-{5-[1-(2-hydroxyethyl)-1H-pyrazol-4-yl]-1H-pyrrolo[2,3-b]pyridin-3-yl}-2-methylaminopyrimidin-4-yl)-1-phenylethanol] | 21 nM |
| CCC(OCOC)(c1cc(-c2c[nH]c3ncc(-c4cnn(C)c4)cc23)nc(N)n1)c1cccc(Cl)c1F (stereo not shown) [A30, 4-[1-(3-chloro-2-fluorophenyl)-1-methoxymethoxypropyl]-6-[5-(1-methyl-1H-pyrazol-4-yl)-1H-pyrrolo[2,3-b]pyridin-3-yl]pyrimidin-2-ylamine] | 130 nM |
| COCOC(C)(c1cc(-c2c[nH]c3ncc(-c4cnn(C)c4)cc23)nc(N)n1)c1cccc(Cl)c1F (stereo not shown) [A29, 4-[1-(3-chloro-2-fluorophenyl)-1-methoxymethoxyethyl]-6-[5-(1-methyl-1H-pyrazol-4-yl)-1H-pyrrolo[2,3-b]pyridin-3-yl]pyrimidin-2-ylamine] | 40 nM |
| COCOC(C)(c1cccc(C)c1)c1cc(-c2c[nH]c3ncc(-c4cnn(CCO)c4)cc23)nc(N)n1 (stereo not shown) [A22, 2-(4-{3-[2-amino-6-(1-methoxymethoxy-1-m-tolylethyl)pyrimidin-4-yl]-1H-pyrrolo[2,3-b]pyridin-5-yl}pyrazol-1-yl)ethanol] | 59 nM |
| CC(O)(c1ccccc1)c1cc(-c2c[nH]c3ncc(-c4cnn(C(CF)CF)c4)cc23)nc(N)n1 (stereo not shown) [A80, 1-(2-amino-6-{5-[1-(2-fluoro-1-fluoromethylethyl)-1H-pyrazol-4-yl]-1H-pyrrolo[2,3-b]pyridin-3-yl}pyrimidin-4-yl)-1-phenylethanol] | 17 nM |
| CC(O)(c1ccccc1)c1cc(-c2c[nH]c3ncc(-c4ccnnc4)cc23)nc(N)n1 (stereo not shown) [A101, 1-[2-amino-6-(5-pyridazin-4-yl-1H-pyrrolo[2,3-b]pyridin-3-yl)pyrimidin-4-yl]-1-phenylethanol] | 740 nM |
| CC(O)(c1ccccc1)c1cc(-c2c[nH]c3ncc(-c4cnn(CCC(=O)N5CCOCC5)c4)cc23)nc(N)n1 (stereo not shown) [A68, 3-(4-{3-[2-amino-6-(1-hydroxy-1-phenylethyl)pyrimidin-4-yl]-1H-pyrrolo-[2,3-b]pyridin-5-yl}pyrazol-1-yl)-1-morpholin-4-ylpropan-1-one] | 74 nM |
| CCC(O)(c1ccncc1)c1cc(-c2c[nH]c3ncc(-c4cn[nH]c4)cc23)nc(N)n1 (single isomer, unassigned) [A43, 1-{2-amino-6-[5-(1H-pyrazol-4-yl)-1H-pyrrolo[2,3-b]pyridin-3-yl]pyrimidin-4-yl}-1-pyridin-4-ylpropan-1-ol] | 1.6 nM |
| CC(C(=O)N1CCCC1)n1cc(-c2cnc3[nH]cc(-c4cc(C(C)(O)c5ccccc5)nc(N)n4)c3c2)cn1 (stereo not shown) [A14, 2-(4-{3-[2-amino-6-(1-hydroxy-1-phenylethyl)pyrimidin-4-yl]-1H-pyrrolo-[2,3-b]pyridin-5-yl}pyrazol-1-yl)-1-pyrrolidin-1-ylpropan-1-one] | 39 nM |
| Cn1cc(-c2cnc3[nH]cc(-c4cc(C(C)(O)c5ccc(=O)[nH]c5)nc(N)n4)c3c2)cn1 (stereo not shown) [A111, 5-(1-{2-amino-6-[5-(1-methyl-1H-pyrazol-4-yl)-1H-pyrrolo[2,3-b]pyridin-3-yl]-pyrimidin-4-yl}-1-hydroxyethyl)-1H-pyridin-2-one] | 26 nM |
| COCOC(C)(c1ccccc1)c1cc(-c2c[nH]c3ncc(-c4cnn(CCC(=O)O)c4)cc23)nc(N)n1 (stereo not shown) [A77, 3-(4-{3-[2-amino-6-(1-methoxymethoxy-1-phenylethyl)pyrimidin-4-yl]-1H-pyrrolo[2,3-b]pyridin-5-yl}pyrazol-1-yl)propionic acid] | 43 nM |
| CCC(OCOC)(c1cc(-c2c[nH]c3ncc(-c4cnn(C)c4)cc23)nc(N)n1)c1ccncc1F (stereo not shown) [A32, 4-[1-(3-fluoropyridin-4-yl)-1-methoxymethoxypropyl]-6-[5-(1-methyl-1H-pyrazol-4-yl)-1H-pyrrolo[2,3-b]pyridin-3-yl]pyrimidin-2-ylamine] | 25 nM |
| CCC(O)(c1ccncc1)c1cc(-c2c[nH]c3ncc(-c4cnn(C)c4)cc23)nc(N)n1 (single isomer, unassigned) [A21, 1-{2-amino-6-[5-(1-methyl-1H-pyrazol-4-yl)-1H-pyrrolo[2,3-b]pyridin-3-yl]-pyrimidin-4-yl}-1-pyridin-4-ylpropan-1-ol] | 36 nM |
| CC(O)(c1ccccc1)c1cc(-c2c[nH]c3ncc(Br)cc23)nc(N)n1 (stereo not shown) [A86, 1-[2-amino-6-(5-bromo-1H-pyrrolo[2,3-b]pyridin-3-yl)pyrimidin-4-yl]-1-phenylethanol] | 89 nM |
| CC(O)(c1ccccc1)c1cc(-c2c[nH]c3ncc(-c4cnn(CCO)c4)cc23)nc(N)n1 (single isomer, unassigned) [A97, 1-(2-amino-6-{5-[1-(2-hydroxyethyl)-1H-pyrazol-4-yl]-1H-pyrrolo[2,3-b]-pyridin-3-yl}pyrimidin-4-yl)-1-phenylethanol] | 38 nM |
| Cn1cc(-c2cnc3[nH]cc(-c4cc(C(C)(O)c5ccncc5)nc(N)n4)c3c2)cn1 (stereo not shown) [A64, 1-{2-amino-6-[5-(1-methyl-1H-pyrazol-4-yl)-1H-pyrrolo[2,3-b]pyridin-3-yl]-pyrimidin-4-yl}-1-pyridin-4-ylethanol] | 3.3 nM |
| CC(O)(c1ccccc1)c1cc(-c2c[nH]c3ncc(-c4cncnc4)cc23)nc(N)n1 (stereo not shown) [A100, 1-[2-amino-6-(5-pyrimidin-5-yl-1H-pyrrolo[2,3-b]pyridin-3-yl)pyrimidin-4-yl]-1-phenylethanol] | 1700 nM |
| COCOC(C)(c1ccnc(C)c1)c1cc(-c2c[nH]c3ncc(-c4cnn(C)c4)cc23)nc(N)n1 (stereo not shown) [A108, 4-[1-methoxymethoxy-1-(2-methylpyridin-4-yl)ethyl]-6-[5-(1-methyl-1H-pyrazol-4-yl)-1H-pyrrolo[2,3-b]pyridin-3-yl]pyrimidin-2-ylamine] | 49 nM |
| CO[C@](C)(c1ccccc1)c1cc(-c2c[nH]c3ncc(-c4cnn(CCO)c4)cc23)nc(N)n1 (single isomer, unassigned) [A92] | 35 nM |
| COCOC(C)(c1ccccc1)c1cc(-c2c[nH]c3ncc(Br)cc23)nc(N)n1 (stereo not shown) [A15, 4-(5-bromo-1H-pyrrolo[2,3-b]pyridin-3-yl)-6-(1-methoxymethoxy-1-phenylethyl)pyrimidin-2-ylamine] | 500 nM |
| CC(O)(c1ccccc1)c1cc(-c2c[nH]c3ncc(-c4cnn(CCC(=O)N5CCOCC5)c4)cc23)nc(N)n1 (stereo not shown) [A67, 3-(4-{3-[2-amino-6-(1-hydroxy-1-phenylethyl)pyrimidin-4-yl]-1H-pyrrolo-[2,3-b]pyridin-5-yl}pyrazol-1-yl)-1-morpholin-4-ylpropan-1-one] | 28 nM |
| COC(=O)CCn1cc(-c2cnc3[nH]cc(-c4cc(C(C)(O)c5ccccc5)nc(N)n4)c3c2)cn1 (stereo not shown) [A70, methyl 3-(4-{3-[2-amino-6-(1-hydroxy-1-phenylethyl)pyrimidin-4-yl]-1H-pyrrolo[2,3-b]pyridin-5-yl}pyrazol-1-yl)propionate] | 48 nM |
| CCC(O)(c1cccnc1)c1cc(-c2c[nH]c3ncc(-c4cnn(C)c4)cc23)nc(N)n1 (stereo not shown) [A26, 1-{2-amino-6-[5-(1-methyl-1H-pyrazol-4-yl)-1H-pyrrolo[2,3-b]pyridin-3-yl]-pyrimidin-4-yl}-1-pyridin-3-ylpropan-1-ol] | 43 nM |
| CCC(O)(c1ccncc1)c1cc(-c2c[nH]c3ncc(-c4cn[nH]c4)cc23)nc(N)n1 (single isomer, unassigned) [A44, 1-{2-amino-6-[5-(1H-pyrazol-4-yl)-1H-pyrrolo[2,3-b]pyridin-3-yl]pyrimidin-4-yl}-1-pyridin-4-ylpropan-1-ol] | 17 nM |
| CC(O)(c1ccncc1)c1cc(-c2c[nH]c3ncc(-c4cn[nH]c4)cc23)nc(N)n1 (stereo not shown) [A62, 1-{2-amino-6-[5-(1H-pyrazol-4-yl)-1H-pyrrolo[2,3-b]pyridin-3-yl]pyrimidin-4-yl}-1-pyridin-4-ylethanol] | 2.8 nM |
| C=C(CF)n1cc(-c2cnc3[nH]cc(-c4cc(C(C)(O)c5ccccc5)nc(N)n4)c3c2)cn1 (stereo not shown) [A79, 1-(2-amino-6-{5-[1-(1-fluoromethylvinyl)-1H-pyrazol-4-yl]-1H-pyrrolo[2,3-b]-pyridin-3-yl}pyrimidin-4-yl)-1-phenylethanol] | 68 nM |
| CC(O)(c1ccccc1)c1cc(-c2c[nH]c3ncc(-c4cnn(CC(F)F)c4)cc23)nc(N)n1 (stereo not shown) [A84, 1-(2-amino-6-{5-[1-(2,2-difluoroethyl)-1H-pyrazol-4-yl]-1H-pyrrolo[2,3-b]-pyridin-3-yl}pyrimidin-4-yl)-1-phenylethanol] | 50 nM |
| Cc1ccccc1C(C)(O)c1cc(-c2c[nH]c3ncc(-c4cnn(CCO)c4)cc23)nc(N)n1 (stereo not shown) [A89, 1-(2-amino-6-{5-[1-(2-hydroxyethyl)-1H-pyrazol-4-yl]-1H-pyrrolo[2,3-b]-pyridin-3-yl}pyrimidin-4-yl)-1-o-tolylethanol] | 19 nM |

Source: patent US8575163B2, “Pyrrolopyridinylpyrimidin-2-ylamine derivatives” (Merck Patent GmbH, priority 2009, dated 2013)
